Measured values reported in the NIST ThermoML archive (doi:10.1021/je500917k).

Experiment: xn = mol fraction of the nth substance listed
Conditions: 100 kPa, Liquid; for speed of sound: Frequency=2 MHz

CCN1CCCC1=O [1-ethyl-2-pyrrolidinone] + CNCCO
Conditions | mass density [kg/m3] | speed of sound [m/s] | viscosity [mPa·s]
293.15 K, x1 = 0.0905 | 947.11 | 1479.8 | 9.188
293.15 K, x1 = 0.1825 | 953.11 | 1478.5 | 6.79
293.15 K, x1 = 0.2767 | 958.92 | 1478.5 | 5.162
293.15 K, x1 = 0.3731 | 964.75 | 1480.1 | 4.095
293.15 K, x1 = 0.4713 | 970.4 | 1483.1 | 3.496
293.15 K, x1 = 0.5725 | 975.84 | 1486.9 | 2.951
293.15 K, x1 = 0.6756 | 981.28 | 1491.4 | 2.648
293.15 K, x1 = 0.7808 | 986.73 | 1497.9 | 2.358
293.15 K, x1 = 0.8888 | 992.12 | 1504.7 | 2.231
293.15 K, x1 = 1 | 997.71 | 1512.1 | 2.117
303.15 K, x1 = 0.0905 | 939.11 | 1447.2 | 6.239
303.15 K, x1 = 0.1825 | 944.94 | 1445.2 | 4.715
303.15 K, x1 = 0.2767 | 950.62 | 1444.1 | 3.747
303.15 K, x1 = 0.3731 | 956.31 | 1444.9 | 3.068
303.15 K, x1 = 0.4713 | 961.92 | 1447.3 | 2.666
303.15 K, x1 = 0.5725 | 967.33 | 1450.6 | 2.339
303.15 K, x1 = 0.6756 | 972.75 | 1454.6 | 2.125
303.15 K, x1 = 0.7808 | 978.18 | 1460.6 | 1.94
303.15 K, x1 = 0.8888 | 983.56 | 1467 | 1.83
303.15 K, x1 = 1 | 989.14 | 1474.2 | 1.771
313.15 K, x1 = 0.0905 | 931.05 | 1414.1 | 4.394
313.15 K, x1 = 0.1825 | 936.73 | 1411.3 | 3.488
313.15 K, x1 = 0.2767 | 942.28 | 1409.4 | 2.89
313.15 K, x1 = 0.3731 | 947.87 | 1409.5 | 2.409
313.15 K, x1 = 0.4713 | 953.42 | 1411.6 | 2.123
313.15 K, x1 = 0.5725 | 958.78 | 1414.3 | 1.914
313.15 K, x1 = 0.6756 | 964.1 | 1418 | 1.776
313.15 K, x1 = 0.7808 | 969.61 | 1423.5 | 1.639
313.15 K, x1 = 0.8888 | 974.99 | 1429.4 | 1.546
313.15 K, x1 = 1 | 980.56 | 1436 | 1.518
323.15 K, x1 = 0.0905 | 922.92 | 1381 | 3.293
323.15 K, x1 = 0.1825 | 928.44 | 1377.6 | 2.683
323.15 K, x1 = 0.2767 | 933.89 | 1375.1 | 2.267
323.15 K, x1 = 0.3731 | 939.38 | 1374.6 | 1.943
323.15 K, x1 = 0.4713 | 944.88 | 1376.1 | 1.747
323.15 K, x1 = 0.5725 | 950.21 | 1378.3 | 1.58
323.15 K, x1 = 0.6756 | 955.61 | 1381.7 | 1.478
323.15 K, x1 = 0.7808 | 961.03 | 1386.8 | 1.41
323.15 K, x1 = 0.8888 | 966.4 | 1392.3 | 1.331
323.15 K, x1 = 1 | 971.96 | 1398.5 | 1.299

CCNCCO [2-(ethylamino)ethanol] + CCN1CCCC1=O
Conditions | mass density [kg/m3] | speed of sound [m/s] | viscosity [mPa·s]
293.15 K, x2 = 0 | 917.79 | 1442.4 | 15.28
293.15 K, x2 = 0.111 | 925.54 | 1444.5 | 10.35
293.15 K, x2 = 0.2179 | 933.77 | 1448.8 | 7.447
293.15 K, x2 = 0.3242 | 941.8 | 1453.7 | 5.665
293.15 K, x2 = 0.4274 | 949.86 | 1459.7 | 4.571
293.15 K, x2 = 0.5359 | 958.36 | 1468 | 3.849
293.15 K, x2 = 0.6269 | 965.64 | 1473.3 | 3.126
293.15 K, x2 = 0.7225 | 973.71 | 1482 | 2.717
293.15 K, x2 = 0.8177 | 981.7 | 1491.1 | 2.458
293.15 K, x2 = 0.9095 | 989.6 | 1501 | 2.261
303.15 K, x2 = 0 | 909.82 | 1408.3 | 9.59
303.15 K, x2 = 0.111 | 917.42 | 1409.8 | 6.874
303.15 K, x2 = 0.2179 | 925.53 | 1413.7 | 5.212
303.15 K, x2 = 0.3242 | 933.46 | 1418.1 | 4.093
303.15 K, x2 = 0.4274 | 941.44 | 1423.5 | 3.257
303.15 K, x2 = 0.5359 | 949.89 | 1431.6 | 2.917
303.15 K, x2 = 0.6269 | 957.14 | 1436.5 | 2.458
303.15 K, x2 = 0.7225 | 965.19 | 1445 | 2.205
303.15 K, x2 = 0.8177 | 973.17 | 1453.7 | 2.013
303.15 K, x2 = 0.9095 | 981.06 | 1463.3 | 1.891
313.15 K, x2 = 0 | 901.79 | 1374.5 | 6.406
313.15 K, x2 = 0.111 | 909.24 | 1375.4 | 4.824
313.15 K, x2 = 0.2179 | 917.23 | 1378.8 | 3.79
313.15 K, x2 = 0.3242 | 925.07 | 1382.8 | 3.092
313.15 K, x2 = 0.4274 | 932.99 | 1387.9 | 2.609
313.15 K, x2 = 0.5359 | 941.38 | 1395.5 | 2.311
313.15 K, x2 = 0.6269 | 948.61 | 1400 | 1.979
313.15 K, x2 = 0.7225 | 956.65 | 1408.2 | 1.834
313.15 K, x2 = 0.8177 | 964.63 | 1416.7 | 1.684
313.15 K, x2 = 0.9095 | 972.5 | 1425.7 | 1.578
323.15 K, x2 = 0 | 893.68 | 1340.9 | 4.527
323.15 K, x2 = 0.111 | 900.98 | 1341.1 | 3.563
323.15 K, x2 = 0.2179 | 908.86 | 1344.1 | 2.873
323.15 K, x2 = 0.3242 | 916.63 | 1347.7 | 2.399
323.15 K, x2 = 0.4274 | 924.49 | 1352.5 | 2.053
323.15 K, x2 = 0.5359 | 932.84 | 1359.8 | 1.833
323.15 K, x2 = 0.6269 | 940.06 | 1364.2 | 1.664
323.15 K, x2 = 0.7225 | 948.09 | 1372 | 1.547
323.15 K, x2 = 0.8177 | 956.06 | 1380 | 1.435
323.15 K, x2 = 0.9095 | 963.93 | 1388.8 | 1.367
